Measured values: patent US20240366589A1, “NHE3-BINDING COMPOUNDS AND METHODS FOR INHIBITING PHOSPHATE TRANSPORT” (Ardelyx, Inc., priority 2013, published 2024)

How the values were obtained:
[1] = test system: absorption of sodium from the intestinal lumen; assay: Inhibition of intestinal sodium absorption: urinary sodium (uNa) 16 h after single oral dose in rats; assay type: in vivo, rat; conditions: oral gavage, 16 h post-dose
Summary of the method: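 Urinary sodium mass over the 16 h after one oral gavage dose, measured by cation-exchange ion chromatography, reported as percent of water-vehicle group; ANOVA plus Dunnett's post hoc test. Groups of six 8-week-old Sprague-Dawley rats, housed individually in metabolic cages post-dose, fed and watered freely.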

[2] = test system: absorption of sodium from the intestinal lumen; assay: Fecal form score (FFS) 16 h after oral dose in rats; assay type: in vivo, rat; conditions: oral gavage, 16 h post-dose, scale 1-5
Summary of the method: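 Fecal form was scored at 16 h post-dose on a 1–5 wetness scale (normal pellet to liquid stream), with two independent observations averaged across six rats per group. Animals were 8-week-old Sprague-Dawley rats given test compound or water orally in the late afternoon and kept in metabolic cages.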

Human NHE3 = biological target: T1, Human NHE3 (Homo sapiens, UniProt P48764); assay: Cell-based NHE3 activity under prompt conditions (OK cells, BCECF pH recovery), human NHE3; conditions: prompt conditions; for IC50: read-out: Prompt Human NHE3 pIC50 (converted)
T1 construct: expressed in transfected cells; host or cells: Opossum kidney (OK) cells (ATCC), electroporation
T1 sequence (P48764 26-834): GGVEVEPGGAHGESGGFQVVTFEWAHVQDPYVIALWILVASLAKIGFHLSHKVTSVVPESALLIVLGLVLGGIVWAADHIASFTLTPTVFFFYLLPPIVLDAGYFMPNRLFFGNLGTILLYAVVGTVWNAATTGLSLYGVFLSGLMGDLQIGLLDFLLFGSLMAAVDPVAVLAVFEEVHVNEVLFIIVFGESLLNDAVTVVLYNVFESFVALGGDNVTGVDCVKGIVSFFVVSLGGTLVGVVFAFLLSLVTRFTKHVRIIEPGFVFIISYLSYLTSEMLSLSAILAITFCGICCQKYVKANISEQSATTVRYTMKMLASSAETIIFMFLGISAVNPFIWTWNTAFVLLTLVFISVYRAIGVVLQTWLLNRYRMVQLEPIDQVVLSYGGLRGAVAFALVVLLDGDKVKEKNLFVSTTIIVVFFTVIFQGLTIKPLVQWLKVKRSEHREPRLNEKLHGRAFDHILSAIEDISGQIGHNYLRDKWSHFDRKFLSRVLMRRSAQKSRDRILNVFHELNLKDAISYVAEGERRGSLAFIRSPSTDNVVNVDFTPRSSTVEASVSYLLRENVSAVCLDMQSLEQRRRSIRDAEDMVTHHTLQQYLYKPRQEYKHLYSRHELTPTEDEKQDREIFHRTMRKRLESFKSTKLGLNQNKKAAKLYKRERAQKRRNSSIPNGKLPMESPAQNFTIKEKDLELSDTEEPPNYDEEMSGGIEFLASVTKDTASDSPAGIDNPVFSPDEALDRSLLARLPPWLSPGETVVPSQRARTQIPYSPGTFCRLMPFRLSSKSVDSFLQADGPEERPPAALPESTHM
Summary of the method: (§1)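 Fluorometric NHE3 antiport assay in opossum kidney cells carrying rat or human NHE3, using BCECF pH recovery after NH4Cl-prepulse acid loading. pIC50 values derive from initial rates averaged across at least two replicates.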

[3] = test system: phosphorus and calcium levels in the urine of rats; assay: Urinary excretion of phosphate and calcium in rats (16 h overnight urine); assay type: in vivo, rat; conditions: rats, oral gavage, 16 h post-dose
Rat NHE3 = biological target: T2, Rat NHE3 (Rattus norvegicus, UniProt P26433); assay: Cell-based NHE3 activity under prompt conditions (OK cells, BCECF pH recovery), rat NHE3; conditions: prompt conditions
T2 construct: expressed in transfected cells; host or cells: Opossum kidney (OK) cells (ATCC), electroporation
Summary of the method: as §1

T2 sequence (P26433 29-831): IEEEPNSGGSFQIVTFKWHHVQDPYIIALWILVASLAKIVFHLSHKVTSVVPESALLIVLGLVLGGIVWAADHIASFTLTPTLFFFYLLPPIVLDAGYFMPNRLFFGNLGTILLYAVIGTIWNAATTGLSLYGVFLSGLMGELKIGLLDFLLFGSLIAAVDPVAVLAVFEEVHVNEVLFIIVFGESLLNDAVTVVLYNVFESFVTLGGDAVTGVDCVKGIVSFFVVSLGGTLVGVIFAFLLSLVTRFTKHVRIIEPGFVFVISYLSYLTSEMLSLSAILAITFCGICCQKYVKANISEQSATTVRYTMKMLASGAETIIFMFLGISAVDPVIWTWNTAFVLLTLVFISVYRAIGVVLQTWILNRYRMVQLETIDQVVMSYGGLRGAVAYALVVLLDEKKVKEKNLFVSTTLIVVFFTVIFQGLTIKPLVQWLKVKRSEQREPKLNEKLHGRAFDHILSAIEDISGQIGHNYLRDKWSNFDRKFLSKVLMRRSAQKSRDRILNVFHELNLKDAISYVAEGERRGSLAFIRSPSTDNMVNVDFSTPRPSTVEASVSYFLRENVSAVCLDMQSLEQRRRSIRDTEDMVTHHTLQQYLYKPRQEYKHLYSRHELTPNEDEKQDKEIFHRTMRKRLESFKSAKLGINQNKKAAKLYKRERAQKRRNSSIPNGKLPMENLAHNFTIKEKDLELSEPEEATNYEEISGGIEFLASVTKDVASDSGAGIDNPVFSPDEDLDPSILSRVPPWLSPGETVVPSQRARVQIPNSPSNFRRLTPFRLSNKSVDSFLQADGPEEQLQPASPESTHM

| SMILES | Prompt Human NHE3 pIC50 (Human NHE3) | Prompt Rat NHE3 pIC50 (Rat NHE3) | IC50 (Human NHE3) | IC50 (Rat NHE3; read-out: Prompt Rat NHE3 pIC50 (converted)) | Urine Na % of control ([1]; dose 8 mg/kg) | Fecal Form Score average ([2]; dose 8 mg/kg) | Urine P % of control ([3]; dose 8 mg/kg) | Urine Na % of control ([1]; dose 10 mg/kg) | Fecal Form Score average ([2]; dose 10 mg/kg) | Urine P % of control ([3]; dose 10 mg/kg) | Urine Na % of control ([1]; dose 3 mg/kg) | Fecal Form Score average ([2]; dose 3 mg/kg) | Urine P % of control ([3]; dose 3 mg/kg) | Urine Na % of control ([1]; dose 1 mg/kg) | Fecal Form Score average ([2]; dose 1 mg/kg) | Urine P % of control ([3]; dose 1 mg/kg) |
| --- | --- | --- | --- | --- | --- | --- | --- | --- | --- | --- | --- | --- | --- | --- | --- | --- |
| C/C(=C\c1cc(F)c(Oc2ccc(S(=O)(=O)NCCOCCOCCOCCNC(=O)OCCOCCOCCOC(=O)NCCOCCOCCOCCNS(=O)(=O)c3ccc(Oc4c(F)cc(/C=C(\C)C(=O)N=C(N)N)cc4F)cc3)cc2)c(F)c1)C(=O)N=C(N)N [compound 26] | 7.70 | 7.50 |  |  |  |  |  | 78% | 1 | 77% |  |  |  |  |  |  |
| O=C(NCCCCNC(=O)NCCOCCOCCNS(=O)(=O)c1ccc(O[C@H]2c3ccccc3C[C@@H]2N2CCCCC2)cc1)NCCOCCOCCNS(=O)(=O)c1ccc(O[C@H]2c3ccccc3C[C@@H]2N2CCCCC2)cc1 (racemic) [compound 47] |  |  | 15.8 nM | 50.1 nM |  |  |  | 73% | 1 | 51% |  |  |  |  |  |  |
| O=C(NCCCCNC(=O)NCCOCCOCCNS(=O)(=O)c1ccc(O[C@H]2c3ccccc3C[C@@H]2N2CCCC2)cc1)NCCOCCOCCNS(=O)(=O)c1ccc(O[C@H]2c3ccccc3C[C@@H]2N2CCCC2)cc1 [compound 99] |  | 8.60 | ≥ 10000 nM |  |  |  |  | 41% | 1 | 52% |  |  |  |  |  |  |
| CN(CC(=O)NCCOCCOCCOCCNS(=O)(=O)c1ccc(OC2c3ccccc3CC2N2CCCCC2)cc1)CC(=O)NCCOCCOCCOCCNS(=O)(=O)c1ccc(OC2c3ccccc3CC2N2CCCCC2)cc1 (stereo not drawn) [compound 52] | 7.40 | 7.35 |  |  |  |  |  | 68% | 1 | 71% |  |  |  |  |  |  |
| O=C(NCCOCCOCCOCCNS(=O)(=O)c1ccc(O[C@H]2c3ccccc3C[C@@H]2N2CCCCC2)cc1)c1ccc(C(=O)NCCOCCOCCOCCNS(=O)(=O)c2ccc(O[C@H]3c4ccccc4C[C@@H]3N3CCCCC3)cc2)cc1 [compound 117] | 8.20 | 7.50 |  |  |  |  |  | 77% | 1 | 98% |  |  |  |  |  |  |
| N=C(N)Nc1nc(-c2cccc(OCCOCCOCCOCCNC(=O)NCCOCCOCCNC(=O)CN(CCN(CC(=O)O)CC(=O)NCCOCCOCCNC(=O)NCCOCCOCCOCCOc3cccc(-c4nc(NC(=N)N)nc5ccc(Cl)cc45)c3)CC(=O)O)c2)c2cc(Cl)ccc2n1 [compound 44] | 7.90 | 7.70 |  |  |  |  |  | 88% | 1 | 102% |  |  |  |  |  |  |
| CN(CC(=O)NCCOCCOCCNC(=O)NCCOCCOCCOCCN1CCN(c2cccc(-c3nc(NC(=N)N)nc4ccc(Cl)cc34)c2)CC1)CC(=O)NCCOCCOCCNC(=O)NCCOCCOCCOCCN1CCN(c2cccc(-c3nc(NC(=N)N)nc4ccc(Cl)cc34)c2)CC1 [compound 42] | 8.20 | 7.70 |  |  |  |  |  | 94% | 1 | 94% |  |  |  |  |  |  |

Second part, led by results:

| Prompt Human NHE3 pIC50 (Human NHE3) | Prompt Rat NHE3 pIC50 (Rat NHE3) | IC50 (Human NHE3) | IC50 (Rat NHE3; read-out: Prompt Rat NHE3 pIC50 (converted)) | SMILES | Urine Na % of control ([1]; dose 8 mg/kg) | Fecal Form Score average ([2]; dose 8 mg/kg) | Urine P % of control ([3]; dose 8 mg/kg) | Urine Na % of control ([1]; dose 10 mg/kg) | Fecal Form Score average ([2]; dose 10 mg/kg) | Urine P % of control ([3]; dose 10 mg/kg) | Urine Na % of control ([1]; dose 3 mg/kg) | Fecal Form Score average ([2]; dose 3 mg/kg) | Urine P % of control ([3]; dose 3 mg/kg) | Urine Na % of control ([1]; dose 1 mg/kg) | Fecal Form Score average ([2]; dose 1 mg/kg) | Urine P % of control ([3]; dose 1 mg/kg) |
| --- | --- | --- | --- | --- | --- | --- | --- | --- | --- | --- | --- | --- | --- | --- | --- | --- |
| 7.70 | 7.50 |  |  | CN1Cc2c(Cl)cc(Cl)cc2[C@H](c2cccc(S(=O)(=O)NCCOCCOCCOCCNC(=O)CC(CC(=O)NCCOCCOCCOCCNS(=O)(=O)c3cccc([C@@H]4CN(C)Cc5c(Cl)cc(Cl)cc54)c3)C(=O)NCCOCCOCCOCCNS(=O)(=O)c3cccc([C@@H]4CN(C)Cc5c(Cl)cc(Cl)cc54)c3)c2)C1 [compound 84] | 7% | 3 | 47% |  |  |  |  |  |  |  |  |  |
| 7.40 | 7.50 |  |  | CN(C)CC(=O)NC(CCC(=O)N(C)CCOCCOCCNS(=O)(=O)c1cccc([C@@H]2CN(C)Cc3c(Cl)cc(Cl)cc32)c1)(CCC(=O)N(C)CCOCCOCCNS(=O)(=O)c1cccc([C@@H]2CN(C)Cc3c(Cl)cc(Cl)cc32)c1)CCC(=O)N(C)CCOCCOCCNS(=O)(=O)c1cccc([C@@H]2CN(C)Cc3c(Cl)cc(Cl)cc32)c1 [compound 176] |  |  |  |  |  |  | 73% | 1 | 92% |  |  |  |
| 7.30 | 7.30 |  |  | CN1Cc2c(Cl)cc(Cl)cc2[C@H](c2cccc(S(=O)(=O)NCCOCCOCCNC(=O)CCC(CCC(=O)NCCOCCOCCNS(=O)(=O)c3cccc([C@@H]4CN(C)Cc5c(Cl)cc(Cl)cc54)c3)(CCC(=O)NCCOCCOCCNS(=O)(=O)c3cccc([C@@H]4CN(C)Cc5c(Cl)cc(Cl)cc54)c3)NC(=O)CCCC(=O)O)c2)C1 [compound 137] |  |  |  |  |  |  | 28% | 3 | 139% | 39% | 1 | 137% |
| 8.00 | 8.60 |  |  | CN(C)[C@H]1Cc2c(Cl)cc(Cl)cc2[C@@H]1Oc1ccc(S(=O)(=O)NCCOCCOCCNC(=O)[C@H](O)[C@@H](O)C(=O)NCCOCCOCCNS(=O)(=O)c2ccc(O[C@H]3c4cc(Cl)cc(Cl)c4C[C@@H]3N(C)C)cc2)cc1 [compound 150] |  |  |  | 12% | 1 | 159% | 73% | 1 | 74% |  |  |  |
| 7.30 | 6.50 |  |  | CN1Cc2c(Cl)cc(Cl)cc2[C@H](c2cccc(S(=O)(=O)NCCOCCOCCNC(=O)CCC(CCC(=O)NCCOCCOCCNS(=O)(=O)c3cccc([C@@H]4CN(C)Cc5c(Cl)cc(Cl)cc54)c3)(CCC(=O)NCCOCCOCCNS(=O)(=O)c3cccc([C@@H]4CN(C)Cc5c(Cl)cc(Cl)cc54)c3)NC(N)=O)c2)C1 [compound 133] |  |  |  |  |  |  | 23% | 2 | 67% |  |  |  |
| 7.77 | 7.20 |  |  | CN1Cc2c(Cl)cc(Cl)cc2[C@H](c2cccc(S(=O)(=O)NCCOCCOCCNC(=O)CCC(CCC(=O)NCCOCCOCCNS(=O)(=O)c3cccc([C@@H]4CN(C)Cc5c(Cl)cc(Cl)cc54)c3)(CCC(=O)NCCOCCOCCNS(=O)(=O)c3cccc([C@@H]4CN(C)Cc5c(Cl)cc(Cl)cc54)c3)NC(=O)NCCN3CCOCC3)c2)C1 [compound 144] |  |  |  |  |  |  | 32% | 2 | 47% |  |  |  |
| 7.00 | 6.50 |  |  | CN1Cc2c(Cl)cc(Cl)cc2[C@H](c2cccc(S(=O)(=O)NCCOCCOCCOCCNC(=O)CN(CC(=O)NCCOCCOCCOCCNS(=O)(=O)c3cccc([C@@H]4CN(C)Cc5c(Cl)cc(Cl)cc54)c3)[C@@H]3CCCC[C@H]3N(CC(=O)NCCOCCOCCOCCNS(=O)(=O)c3cccc([C@@H]4CN(C)Cc5c(Cl)cc(Cl)cc54)c3)CC(=O)NCCOCCOCCOCNS(=O)(=O)c3cccc([C@@H]4CN(C)Cc5c(Cl)cc(Cl)cc54)c3)c2)C1 [compound 71] |  |  |  | 80% | 1 | 40% |  |  |  |  |  |  |
| 7.50 | 8.30 |  |  | CN(C)[C@H]1Cc2c(Cl)cc(Cl)cc2[C@@H]1Oc1ccc(S(=O)(=O)NCCOCCOCCNC(=O)C(C)(C)C(=O)NCCOCCOCCNS(=O)(=O)c2ccc(O[C@H]3c4cc(Cl)cc(Cl)c4C[C@@H]3N(C)C)cc2)cc1 [compound 151] |  |  |  | 42% | 2 | 121% | 78% | 1 | 52% |  |  |  |
